These results are taken from US20240116985A1, “STAPLED PEPTIDES AND METHODS THEREOF” (priority 2020, published 2024).

For data set [1], the target named is T1, full-length B-Catenin (Uniprot ID P35222) (Homo sapiens, UniProt P35222).
T1 construct: 65 nM full-length B-Catenin (Uniprot ID P35222)
T1 sequence (P35222 1-781): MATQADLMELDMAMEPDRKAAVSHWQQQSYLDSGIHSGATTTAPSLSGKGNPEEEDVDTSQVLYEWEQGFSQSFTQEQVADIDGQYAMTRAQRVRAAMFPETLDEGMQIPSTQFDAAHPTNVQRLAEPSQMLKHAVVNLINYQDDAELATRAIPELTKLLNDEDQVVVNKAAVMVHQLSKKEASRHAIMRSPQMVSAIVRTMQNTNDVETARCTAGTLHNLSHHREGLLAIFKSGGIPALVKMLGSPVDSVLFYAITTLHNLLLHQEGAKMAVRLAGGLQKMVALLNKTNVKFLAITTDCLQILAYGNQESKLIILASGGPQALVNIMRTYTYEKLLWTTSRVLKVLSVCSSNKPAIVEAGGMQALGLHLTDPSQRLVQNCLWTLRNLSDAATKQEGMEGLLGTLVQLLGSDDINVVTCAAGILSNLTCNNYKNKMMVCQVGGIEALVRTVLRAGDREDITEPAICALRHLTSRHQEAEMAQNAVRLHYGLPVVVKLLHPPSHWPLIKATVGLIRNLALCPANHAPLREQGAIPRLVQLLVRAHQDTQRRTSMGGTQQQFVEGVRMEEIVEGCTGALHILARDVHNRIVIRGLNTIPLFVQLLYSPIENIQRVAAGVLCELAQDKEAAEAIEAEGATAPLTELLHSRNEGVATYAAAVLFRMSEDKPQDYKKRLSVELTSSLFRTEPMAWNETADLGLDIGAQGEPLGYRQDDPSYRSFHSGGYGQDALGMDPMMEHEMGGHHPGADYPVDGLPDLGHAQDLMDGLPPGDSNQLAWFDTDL
As to the kind of experiment: Alphascreen binding assay (beta-catenin / biotin-TCF4 10-53). In outline: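 Final concentrations: 65 nM full-length human β-catenin plus 10 nM biotin-TCF4(10-53) peptide, test peptide 3-fold from 10 uM to 5 nM, preincubated 15 min at 20 °C in Tris pH 8.0/250 mM NaCl buffer. Nickel-chelate AlphaScreen donor/acceptor beads then added for 60 min in the dark; duplicate reads fitted to 1:1 binding model with Hill slope.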
(In general: In Alpha technology, singlet oxygen from a donor bead excites a nearby acceptor bead.)

Data set [2] in a line: CHI Log D procedure. The data set is classed as physicochemical. The conditions noted are these: for CHI Log D: pH 7.4; for chromatographic logD: pH 7.4, CHI Log D.

What is called EC50 is the concentration giving half of the maximal effect. A higher EC50 goes with a less potent agent. Compound `CC(=O)N1CCC[C@]12CC=CCCCC1(CCCC=CCCCCCC[C@@](C)(C(=O)N[C@@H](Cc3cccc(C(F)(F)F)c3)C(=O)N[C@@H](Cc3c[nH]c4ccccc34)C(=O)N[C@@H](CCC(N)=O)C(N)=O)NC(=O)[C@H](C(C)C)NC(=O)[C@H](Cc3ccccc3)NC(=O)[C@H](C)NC(=O)[C@H](C)NC(=O)[C@H](CC(=O)O)NC(=O)[C@H](CC(=O)O)NC1=O)NC(=O)[C@H](C)NC(=O)[C@H](CC(=O)O)NC2=O` (stereo partly drawn) [I-250, Ac-PL3-Asp-Ala-B5-Asp-Asp-Ala-Ala-Phe-Val-S8-3F3MeF-Trp-Gln-NH2] registered an EC50 in data set [1] of 1200 nM. The “CHI Log D” value in data set [2] was determined as 2.299.

In data set [1], `CC(=O)N1CCC[C@]12CC=CCCCC1(CCCC=CCCCCCC[C@@](C)(C(=O)N[C@@H](Cc3cccc(C(F)(F)F)c3)C(=O)N[C@@H](Cc3c[nH]c4ccccc34)C(=O)N[C@@H](CCC(N)=O)C(N)=O)NC(=O)[C@H](C(C)C)NC(=O)[C@H](Cc3ccccc3)NC(=O)[C@H](C)NC(=O)[C@H](C)NC(=O)[C@H](CC(=O)O)NC(=O)[C@H](CC(=O)O)NC1=O)NC(=O)[C@H](C)NC(=O)[C@H](CC(=O)O)NC2=O` (stereo partly drawn) [I-251, Ac-PL3-Asp-Ala-B5-Asp-Asp-Ala-Ala-Phe-Val-S8-3F3MeF-Trp-Gln-NH2] came in with a concentration giving a half-maximal response (EC50) of 1200 nM. In addition, the “CHI Log D” value in data set [2] is listed as 2.299.

`CC(=O)N1CCC[C@]12CC=CCCCC1(CCCC=CCCCCCC[C@@](C)(C(=O)N[C@@H](Cc3ccc(C(F)(F)F)cc3)C(=O)N[C@@H](Cc3c[nH]c4ccccc34)C(=O)N[C@@H](CCC(N)=O)C(N)=O)NC(=O)[C@H](C(C)C)NC(=O)[C@H](Cc3ccccc3)NC(=O)[C@H](C)NC(=O)[C@H](C)NC(=O)[C@H](CC(=O)O)NC(=O)[C@H](CC(=O)O)NC1=O)NC(=O)[C@H](C)NC(=O)[C@H](CC(=O)O)NC2=O` (stereo partly drawn) [I-252, Ac-PL3-Asp-Ala-B5-Asp-Asp-Ala-Ala-Phe-Val-S8-4F3MeF-Trp-Gln-NH2] returned an EC50 in data set [1] of 3690 nM. In addition, the “CHI Log D” value in data set [2] was found to be 2.214.

`CC(=O)N1CCC[C@]12CC=CCCCC1(CCCC=CCCCCCC[C@@](C)(C(=O)N[C@@H](Cc3ccc(C(F)(F)F)cc3)C(=O)N[C@@H](Cc3c[nH]c4ccccc34)C(=O)N[C@@H](CCC(N)=O)C(N)=O)NC(=O)[C@H](C(C)C)NC(=O)[C@H](Cc3ccccc3)NC(=O)[C@H](C)NC(=O)[C@H](C)NC(=O)[C@H](CC(=O)O)NC(=O)[C@H](CC(=O)O)NC1=O)NC(=O)[C@H](C)NC(=O)[C@H](CC(=O)O)NC2=O` (stereo partly drawn) [I-253, Ac-PL3-Asp-Ala-B5-Asp-Asp-Ala-Ala-Phe-Val-S8-4F3MeF-Trp-Gln-NH2] had an EC50 in data set [1] of 3690 nM. Besides, the “CHI Log D” value in data set [2] amounted to 2.214.

For `CC(=O)N1CCC[C@]12CC=CCCCC1(CCCC=CCCCCCC[C@@](C)(C(=O)N[C@@H](Cc3ccc(C(F)(F)F)cc3)C(=O)N[C@@H](Cc3c[nH]c4ccccc34)C(=O)N[C@@H](CCC(N)=O)C(N)=O)NC(=O)[C@H](C(C)C)NC(=O)[C@H](Cc3ccccc3)NC(=O)[C@H](C)NC(=O)[C@H](C)NC(=O)[C@H](CC(=O)O)NC(=O)[C@H](CC(=O)O)NC1=O)NC(=O)[C@H](C)NC(=O)[C@H](CC(=O)O)NC2=O` (stereo partly drawn) [I-254, Ac-PL3-Asp-Ala-B5-Asp-Asp-Ala-Ala-Phe-Val-S8-4F3MeF-Trp-Gln-NH2], in data set [1], the concentration for a half-maximal effect (EC50) was 1960 nM. In data set [2], the “CHI Log D” value is 2.232.

Take `CC(=O)N1CCC[C@]12CC=CCCCC1(CCCC=CCCCCCC[C@@](C)(C(=O)N[C@@H](Cc3ccc(C(F)(F)F)cc3)C(=O)N[C@@H](Cc3c[nH]c4ccccc34)C(=O)N[C@@H](CCC(N)=O)C(N)=O)NC(=O)[C@H](C(C)C)NC(=O)[C@H](Cc3ccccc3)NC(=O)[C@H](C)NC(=O)[C@H](C)NC(=O)[C@H](CC(=O)O)NC(=O)[C@H](CC(=O)O)NC1=O)NC(=O)[C@H](C)NC(=O)[C@H](CC(=O)O)NC2=O` (stereo partly drawn) [I-255, Ac-PL3-Asp-Ala-B5-Asp-Asp-Ala-Ala-Phe-Val-S8-4F3MeF-Trp-Gln-NH2]: the EC50 in data set [1] was 1960 nM. Besides, in data set [2], the “CHI Log D” value is given as 2.232.

By chromatographic logD is commonly meant lipophilicity estimated from chromatographic retention. As to `CC(=O)N1CCC[C@]12CC=CCCCC1(CCCC=CCCCCCC[C@@](C)(C(=O)N[C@@H](Cc3ccccc3)C(=O)N[C@@H](Cc3c[nH]c4ccccc34)C(=O)N[C@@H](CCC(N)=O)C(N)=O)NC(=O)[C@H](C(C)C)NC(=O)[C@H](Cc3ccccc3)NC(=O)[C@H](C)NC(=O)[C@H](C)NC(=O)[C@H](Cc3ccc(F)c(F)c3)NC(=O)[C@H](CC(=O)O)NC1=O)NC(=O)[C@H](C)NC(=O)[C@H](CC(=O)O)NC2=O` (stereo partly drawn) [I-259, Ac-PL3-Asp-Ala-B5-Asp-34FF-Ala-Ala-Phe-Val-S8-Phe-Trp-Gln-NH2], in data set [1], the response was half-maximal at 4180 nM (EC50). The same compound had a chromatographic logD in data set [2] of 2.9.

Consider `CC(=O)N1CCC[C@]12CC=CCCCC1(CCCC=CCCCCCC[C@@](C)(C(=O)N[C@@H](Cc3ccccc3)C(=O)N[C@@H](Cc3c[nH]c4ccccc34)C(=O)N[C@@H](CCC(N)=O)C(N)=O)NC(=O)[C@H](C(C)C)NC(=O)[C@H](Cc3ccccc3)NC(=O)[C@H](C)NC(=O)[C@H](C)NC(=O)[C@H](Cc3ccncc3)NC(=O)[C@H](CC(=O)O)NC1=O)NC(=O)[C@H](C)NC(=O)[C@H](CC(=O)O)NC2=O` (stereo partly drawn) [I-272, Ac-PL3-Asp-Ala-B5-Asp-4PyrA-Ala-Ala-Phe-Val-S8-Phe-Trp-Gln-NH2], for which, in data set [1], a half-maximal response (EC50) required 1010 nM. For the same compound, the chromatographic logD in data set [2] was determined as 2.46.

Take `CC(=O)N1CCC[C@]12CC=CCCCC1(CCCC=CCCCCCC[C@@](C)(C(=O)N[C@@H](Cc3ccc4ccccc4c3)C(=O)N[C@@H](Cc3c[nH]c4ccccc34)C(=O)N[C@@H](CCC(N)=O)C(N)=O)NC(=O)[C@H](C(C)C)NC(=O)[C@H](Cc3ccccc3)NC(=O)[C@H](C)NC(=O)[C@H](C)NC(=O)[C@H](CC(=O)O)NC(=O)[C@H](CC(=O)O)NC1=O)NC(=O)[C@H](C)NC(=O)[C@H](CC(=O)O)NC2=O` (stereo partly drawn) [I-278, Ac-PL3-Asp-Ala-B5-Asp-Asp-Ala-Ala-Phe-Val-S8-2NapA-Trp-Gln-NH2]: the midpoint of the response in data set [1], the EC50, lay at 2230 nM. In data set [2], the “CHI Log D” value is recorded as 2.209.

Compound `CC(=O)N1CCC[C@]12CC=CCCCC1(CCCC=CCCCCCC[C@@](C)(C(=O)N[C@@H](Cc3ccccc3)C(=O)N[C@@H](Cc3c[nH]c4ccccc34)C(=O)N[C@@H](CCC(N)=O)C(N)=O)NC(=O)[C@H](C(C)C)NC(=O)[C@H](Cc3ccccc3)NC(=O)[C@H](C)NC(=O)[C@H](C)NC(=O)[C@H](CC(=O)O)NC(=O)[C@H](CC(=O)O)NC1=O)NC(=O)[C@H](C)NC(=O)[C@H](CCC(=O)O)NC2=O` (stereo partly drawn) [I-279, Ac-PL3-Glu-Ala-B5-Asp-Asp-Ala-Ala-Phe-Val-S8-Phe-Trp-Gln-NH2] showed an EC50 in data set [1] of 4960 nM. Moreover, the “CHI Log D” value in data set [2] is reported as 1.973.

`CC(=O)N1CCC[C@]12CC=CCCCC1(CCCC=CCCCCCC[C@@](C)(C(=O)N[C@@H](CC(=O)O)C(=O)N[C@@H](Cc3c[nH]c4ccccc34)C(=O)N[C@@H](CCC(N)=O)C(N)=O)NC(=O)[C@H](C(C)C)NC(=O)[C@H](Cc3ccccc3)NC(=O)[C@H](C)NC(=O)[C@H](C)NC(=O)[C@H](CC(=O)O)NC(=O)[C@H](CC(=O)O)NC1=O)NC(=O)[C@H](C)NC(=O)[C@H](CC(=O)O)NC2=O` (stereo partly drawn) [I-283, Ac-PL3-Asp-Ala-B5-Asp-Asp-Ala-Ala-Phe-Val-S8-Asp-Trp-Gln-NH2] had an EC50 in data set [1] of 9540 nM. For the same compound, the chromatographic logD in data set [2] is 1.29.
